Data from article PMC7501296, “Rapid and direct control of target protein levels with VHL-recruiting dTAG molecules” (Nature Communications, 2020).

Test system: EWS502 FKBP12^F36V-EWS/FLI; EWS/FLI^−/− cells
Test: Synergy assessment: antiproliferation of EWS502 FKBP12F36V-EWS/FLI; EWS/FLI-/- cells co-treated with dTAGV-1 and dBET6, 72 h
Assay type: cell-based
Procedure: Cell viability was assayed in 2D-adherent or ultra-low adherent 3D-spheroids using CellTiter-Glo (Promega)[6],[15]. Luminescence was measured on an Envision 2104 plate reader (PerkinElmer) and Fluostar Omega Reader (BMG Labtech) and data was analyzed using GraphPad PRISM v8. Synergy assessments were performed using CellTiter-Glo (Promega) with the following modifications to the protocol described in the ref. [34]. In brief, EWS502 cells were plated at 1000 cells per well in 50 µL of appropriate media in 384-well white culture plates (Corning) allowed to adhere overnight, and 100 nL of compounds were added using a Janus Workstation pin tool (PerkinElmer) for 72 h. Cell viability was measured by addition of 10 µL of CellTiter-glo (Promega), followed by incubation for 15 minutes at room temperature. Luminescence was measured on an Envision 2104 plate reader (PerkinElmer) and data was analyzed using GraphPad PRISM v8.

## Cc1sc2c(c1C)C(c1ccc(Cl)cc1)=N[C@@H](CC(=O)NCCCCCCCCNC(=O)COc1cccc3c1C(=O)N(C1CCC(=O)NC1=O)C3=O)c1nnc(C)n1-2 (stereo partly shown) [dBET6]
1 nM dBET6 + 19.5 nM dTAGV-1
  Average DMSO-normalized ratio used for CI calculation: 0.9811
1 nM dBET6 + 78 nM dTAGV-1
  Average DMSO-normalized ratio used for CI calculation: 1.134
1 nM dBET6 + 312.5 nM dTAGV-1
  Average DMSO-normalized ratio used for CI calculation: 1.111
1 nM dBET6 + 1250 nM dTAGV-1
  Average DMSO-normalized ratio used for CI calculation: 0.8948
1 nM dBET6 + 5000 nM dTAGV-1
  Average DMSO-normalized ratio used for CI calculation: 0.8015
1 nM dBET6 alone
  Average DMSO-normalized ratio used for CI calculation: 0.8411
4 nM dBET6 + 19.5 nM dTAGV-1
  Average DMSO-normalized ratio used for CI calculation: 0.9809
4 nM dBET6 + 78 nM dTAGV-1
  Average DMSO-normalized ratio used for CI calculation: 1.057
4 nM dBET6 + 312.5 nM dTAGV-1
  Average DMSO-normalized ratio used for CI calculation: 1.0595
4 nM dBET6 + 1250 nM dTAGV-1
  Average DMSO-normalized ratio used for CI calculation: 0.7491
4 nM dBET6 + 5000 nM dTAGV-1
  Average DMSO-normalized ratio used for CI calculation: 0.4793
4 nM dBET6 alone
  Average DMSO-normalized ratio used for CI calculation: 0.8957
15.6 nM dBET6 + 19.5 nM dTAGV-1
  Average DMSO-normalized ratio used for CI calculation: 0.798
15.6 nM dBET6 + 78 nM dTAGV-1
  Average DMSO-normalized ratio used for CI calculation: 0.8317
15.6 nM dBET6 + 312.5 nM dTAGV-1
  Average DMSO-normalized ratio used for CI calculation: 0.7228
15.6 nM dBET6 + 1250 nM dTAGV-1
  Average DMSO-normalized ratio used for CI calculation: 0.4425
15.6 nM dBET6 + 5000 nM dTAGV-1
  Average DMSO-normalized ratio used for CI calculation: 0.279
15.6 nM dBET6 alone
  Average DMSO-normalized ratio used for CI calculation: 0.7797
62.5 nM dBET6 + 19.5 nM dTAGV-1
  Average DMSO-normalized ratio used for CI calculation: 0.5057
62.5 nM dBET6 + 78 nM dTAGV-1
  Average DMSO-normalized ratio used for CI calculation: 0.5414
62.5 nM dBET6 + 312.5 nM dTAGV-1
  Average DMSO-normalized ratio used for CI calculation: 0.4908
62.5 nM dBET6 + 1250 nM dTAGV-1
  Average DMSO-normalized ratio used for CI calculation: 0.3106
62.5 nM dBET6 + 5000 nM dTAGV-1
  Average DMSO-normalized ratio used for CI calculation: 0.2615
62.5 nM dBET6 alone
  Average DMSO-normalized ratio used for CI calculation: 0.5245
250 nM dBET6 + 19.5 nM dTAGV-1
  Average DMSO-normalized ratio used for CI calculation: 0.3576
250 nM dBET6 + 78 nM dTAGV-1
  Average DMSO-normalized ratio used for CI calculation: 0.3678
250 nM dBET6 + 312.5 nM dTAGV-1
  Average DMSO-normalized ratio used for CI calculation: 0.3326
250 nM dBET6 + 1250 nM dTAGV-1
  Average DMSO-normalized ratio used for CI calculation: 0.2968
250 nM dBET6 + 5000 nM dTAGV-1
  Average DMSO-normalized ratio used for CI calculation: 0.2503
250 nM dBET6 alone
  Average DMSO-normalized ratio used for CI calculation: 0.3398
co-treatment 19.5 nM dTAGV-1 (log10[M] -7.70927) + 1 nM dBET6 (log10[M] -9.0103)
  DMSO-normalized antiproliferation, Mean: 98.11
co-treatment 19.5 nM dTAGV-1 (log10[M] -7.70927) + 4 nM dBET6 (log10[M] -8.40824)
  DMSO-normalized antiproliferation, Mean: 98.09
co-treatment 19.5 nM dTAGV-1 (log10[M] -7.70927) + 15.6 nM dBET6 (log10[M] -7.80618)
  DMSO-normalized antiproliferation, Mean: 79.8
co-treatment 19.5 nM dTAGV-1 (log10[M] -7.70927) + 62.5 nM dBET6 (log10[M] -7.20412)
  DMSO-normalized antiproliferation, Mean: 50.57
co-treatment 19.5 nM dTAGV-1 (log10[M] -7.70927) + 250 nM dBET6 (log10[M] -6.60206)
  DMSO-normalized antiproliferation, Mean: 35.76
co-treatment 78 nM dTAGV-1 (log10[M] -7.10721) + 1 nM dBET6 (log10[M] -9.0103)
  DMSO-normalized antiproliferation, Mean: 113.36
co-treatment 78 nM dTAGV-1 (log10[M] -7.10721) + 4 nM dBET6 (log10[M] -8.40824)
  DMSO-normalized antiproliferation, Mean: 105.67
co-treatment 78 nM dTAGV-1 (log10[M] -7.10721) + 15.6 nM dBET6 (log10[M] -7.80618)
  DMSO-normalized antiproliferation, Mean: 83.17
co-treatment 78 nM dTAGV-1 (log10[M] -7.10721) + 62.5 nM dBET6 (log10[M] -7.20412)
  DMSO-normalized antiproliferation, Mean: 54.14
co-treatment 78 nM dTAGV-1 (log10[M] -7.10721) + 250 nM dBET6 (log10[M] -6.60206)
  DMSO-normalized antiproliferation, Mean: 36.78
co-treatment 312.5 nM dTAGV-1 (log10[M] -6.50515) + 1 nM dBET6 (log10[M] -9.0103)
  DMSO-normalized antiproliferation, Mean: 111.14
co-treatment 312.5 nM dTAGV-1 (log10[M] -6.50515) + 4 nM dBET6 (log10[M] -8.40824)
  DMSO-normalized antiproliferation, Mean: 105.95
co-treatment 312.5 nM dTAGV-1 (log10[M] -6.50515) + 15.6 nM dBET6 (log10[M] -7.80618)
  DMSO-normalized antiproliferation, Mean: 72.28
co-treatment 312.5 nM dTAGV-1 (log10[M] -6.50515) + 62.5 nM dBET6 (log10[M] -7.20412)
  DMSO-normalized antiproliferation, Mean: 49.08
co-treatment 312.5 nM dTAGV-1 (log10[M] -6.50515) + 250 nM dBET6 (log10[M] -6.60206)
  DMSO-normalized antiproliferation, Mean: 33.26
co-treatment 1250 nM dTAGV-1 (log10[M] -5.90309) + 1 nM dBET6 (log10[M] -9.0103)
  DMSO-normalized antiproliferation, Mean: 89.48
co-treatment 1250 nM dTAGV-1 (log10[M] -5.90309) + 4 nM dBET6 (log10[M] -8.40824)
  DMSO-normalized antiproliferation, Mean: 74.91
co-treatment 1250 nM dTAGV-1 (log10[M] -5.90309) + 15.6 nM dBET6 (log10[M] -7.80618)
  DMSO-normalized antiproliferation, Mean: 44.25
co-treatment 1250 nM dTAGV-1 (log10[M] -5.90309) + 62.5 nM dBET6 (log10[M] -7.20412)
  DMSO-normalized antiproliferation, Mean: 31.06
co-treatment 1250 nM dTAGV-1 (log10[M] -5.90309) + 250 nM dBET6 (log10[M] -6.60206)
  DMSO-normalized antiproliferation, Mean: 29.68
co-treatment 5000 nM dTAGV-1 (log10[M] -5.30103) + 1 nM dBET6 (log10[M] -9.0103)
  DMSO-normalized antiproliferation, Mean: 80.15
co-treatment 5000 nM dTAGV-1 (log10[M] -5.30103) + 4 nM dBET6 (log10[M] -8.40824)
  DMSO-normalized antiproliferation, Mean: 47.93
co-treatment 5000 nM dTAGV-1 (log10[M] -5.30103) + 15.6 nM dBET6 (log10[M] -7.80618)
  DMSO-normalized antiproliferation, Mean: 27.9
co-treatment 5000 nM dTAGV-1 (log10[M] -5.30103) + 62.5 nM dBET6 (log10[M] -7.20412)
  DMSO-normalized antiproliferation, Mean: 26.15
co-treatment 5000 nM dTAGV-1 (log10[M] -5.30103) + 250 nM dBET6 (log10[M] -6.60206)
  DMSO-normalized antiproliferation, Mean: 25.03
Combination index
  Synergy with VHL-mediated EWS/FLI degradation (dTAGV-1): synergized strongly
dBET6 log10[M] -6.60206, with DMSO (no dTAGV-1)
  DMSO-normalized antiproliferation, Mean: 33.98
dBET6 log10[M] -7.20412, with DMSO (no dTAGV-1)
  DMSO-normalized antiproliferation, Mean: 52.45
dBET6 log10[M] -7.80618, with DMSO (no dTAGV-1)
  DMSO-normalized antiproliferation, Mean: 77.97
dBET6 log10[M] -8.40824, with DMSO (no dTAGV-1)
  DMSO-normalized antiproliferation, Mean: 89.57
dBET6 log10[M] -9.0103, with DMSO (no dTAGV-1)
  DMSO-normalized antiproliferation, Mean: 84.11
